Tests used:
[1] = target: Muscarinic M2 (Homo sapiens, UniProt P08172); assay: Receptor binding, M2
[2] = target: Serotonin 5-HT1E (Homo sapiens, UniProt P28566); assay: Receptor binding, 5-HT1E
[3] = target: Dopamine D1 (Homo sapiens, UniProt P21728); assay: Receptor binding, D1
[4] = target: Norepinephrine transporter (Homo sapiens, UniProt P23975); assay: Receptor binding, norepinephrine transporter; conditions: Transporters: Norepinephrine
[5] = target: T1, α-Adrenergic α2A (Homo sapiens, UniProt P08913); assay: Receptor binding, α2A
T1 sequence (P08913 1-465): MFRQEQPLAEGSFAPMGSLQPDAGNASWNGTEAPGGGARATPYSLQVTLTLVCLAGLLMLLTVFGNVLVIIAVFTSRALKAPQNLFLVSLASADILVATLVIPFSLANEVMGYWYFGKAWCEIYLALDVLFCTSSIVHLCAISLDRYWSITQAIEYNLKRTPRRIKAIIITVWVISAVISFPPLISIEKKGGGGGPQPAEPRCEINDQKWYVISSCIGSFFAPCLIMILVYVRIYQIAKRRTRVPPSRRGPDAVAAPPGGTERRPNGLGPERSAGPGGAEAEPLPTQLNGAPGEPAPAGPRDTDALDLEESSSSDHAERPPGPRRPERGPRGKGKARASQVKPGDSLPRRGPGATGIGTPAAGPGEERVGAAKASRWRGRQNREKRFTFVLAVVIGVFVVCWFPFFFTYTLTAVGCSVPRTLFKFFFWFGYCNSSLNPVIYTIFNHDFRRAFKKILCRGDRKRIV

[6] = target: Serotonin 5-HT6 (Homo sapiens, UniProt P50406); assay: Receptor binding, 5-HT6
Serotonin 5-HT6, sequence (P50406 whole entry): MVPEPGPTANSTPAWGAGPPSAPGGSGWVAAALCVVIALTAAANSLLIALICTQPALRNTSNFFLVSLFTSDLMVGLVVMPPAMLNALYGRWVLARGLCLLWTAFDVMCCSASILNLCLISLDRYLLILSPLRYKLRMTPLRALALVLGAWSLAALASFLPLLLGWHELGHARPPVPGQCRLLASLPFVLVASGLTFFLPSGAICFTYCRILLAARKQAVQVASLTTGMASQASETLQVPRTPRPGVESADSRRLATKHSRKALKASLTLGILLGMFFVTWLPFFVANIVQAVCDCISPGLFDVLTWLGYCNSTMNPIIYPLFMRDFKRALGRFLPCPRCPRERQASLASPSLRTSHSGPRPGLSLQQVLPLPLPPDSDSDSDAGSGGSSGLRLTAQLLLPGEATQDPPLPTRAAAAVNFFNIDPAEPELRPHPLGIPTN

[7] = target: Opioid κ (Homo sapiens, UniProt P41145); assay: Receptor binding, opioid κ
Opioid κ, sequence (P41145 whole entry): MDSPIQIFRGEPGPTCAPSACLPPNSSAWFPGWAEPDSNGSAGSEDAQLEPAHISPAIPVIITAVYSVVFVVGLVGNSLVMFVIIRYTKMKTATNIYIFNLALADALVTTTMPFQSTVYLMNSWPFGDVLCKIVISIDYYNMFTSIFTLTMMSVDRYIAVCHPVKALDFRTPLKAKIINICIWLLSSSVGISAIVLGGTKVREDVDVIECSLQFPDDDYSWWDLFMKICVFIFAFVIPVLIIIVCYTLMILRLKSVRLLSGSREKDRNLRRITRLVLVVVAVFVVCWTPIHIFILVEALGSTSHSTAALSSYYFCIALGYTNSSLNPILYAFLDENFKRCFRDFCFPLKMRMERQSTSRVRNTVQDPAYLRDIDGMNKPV

[8] = target: Dopamine D5 (Homo sapiens, UniProt P21918); assay: Receptor binding, D5
Dopamine D5, sequence (P21918 whole entry): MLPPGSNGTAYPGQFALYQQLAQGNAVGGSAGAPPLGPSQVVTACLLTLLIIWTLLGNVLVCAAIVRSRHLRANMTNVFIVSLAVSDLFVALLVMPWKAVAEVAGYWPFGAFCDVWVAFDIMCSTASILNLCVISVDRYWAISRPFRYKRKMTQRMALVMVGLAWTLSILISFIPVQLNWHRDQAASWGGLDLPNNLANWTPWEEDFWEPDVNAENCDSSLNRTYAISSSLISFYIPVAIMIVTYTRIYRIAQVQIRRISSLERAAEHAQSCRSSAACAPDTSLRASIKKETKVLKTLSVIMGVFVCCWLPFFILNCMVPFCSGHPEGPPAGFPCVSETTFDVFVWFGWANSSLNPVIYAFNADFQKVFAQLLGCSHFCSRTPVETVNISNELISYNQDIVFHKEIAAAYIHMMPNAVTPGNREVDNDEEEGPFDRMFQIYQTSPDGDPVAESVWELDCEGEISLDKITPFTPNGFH

[9] = target: T2, α-Adrenergic α2C (Homo sapiens, UniProt P18825); assay: Receptor binding, α2C
T2 sequence (P18825 1-462): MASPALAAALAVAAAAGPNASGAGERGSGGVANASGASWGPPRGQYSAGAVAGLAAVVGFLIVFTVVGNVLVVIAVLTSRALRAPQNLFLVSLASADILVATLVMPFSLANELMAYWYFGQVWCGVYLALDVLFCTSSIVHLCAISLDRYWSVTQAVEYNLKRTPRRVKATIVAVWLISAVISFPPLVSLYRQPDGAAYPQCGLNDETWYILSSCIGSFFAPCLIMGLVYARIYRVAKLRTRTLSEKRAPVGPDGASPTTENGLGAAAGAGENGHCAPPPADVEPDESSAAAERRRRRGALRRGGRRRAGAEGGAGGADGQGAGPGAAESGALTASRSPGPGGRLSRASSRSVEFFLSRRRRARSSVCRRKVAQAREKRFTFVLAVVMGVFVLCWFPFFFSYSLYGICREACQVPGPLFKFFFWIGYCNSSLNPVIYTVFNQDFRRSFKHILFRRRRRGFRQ

[10] = target: Muscarinic M5 (Homo sapiens, UniProt P08912); assay: Receptor binding, M5
[11] = target: Muscarinic M1 (Homo sapiens, UniProt P11229); assay: Receptor binding, M1
Muscarinic M1, sequence (P11229 whole entry): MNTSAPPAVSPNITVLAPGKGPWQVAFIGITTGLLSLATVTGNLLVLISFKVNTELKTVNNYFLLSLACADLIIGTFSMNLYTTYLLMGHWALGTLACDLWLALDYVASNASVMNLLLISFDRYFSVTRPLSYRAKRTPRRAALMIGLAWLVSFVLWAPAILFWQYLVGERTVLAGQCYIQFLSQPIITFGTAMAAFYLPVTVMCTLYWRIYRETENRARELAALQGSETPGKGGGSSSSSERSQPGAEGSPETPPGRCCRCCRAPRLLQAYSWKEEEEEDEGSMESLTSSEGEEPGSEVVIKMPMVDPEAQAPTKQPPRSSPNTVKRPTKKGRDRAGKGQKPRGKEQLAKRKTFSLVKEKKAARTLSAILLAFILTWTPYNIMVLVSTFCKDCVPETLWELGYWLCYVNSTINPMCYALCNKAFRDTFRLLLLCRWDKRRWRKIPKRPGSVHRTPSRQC

[12] = target: Serotonin 5-HT2B (Homo sapiens, UniProt P41595); assay: Receptor binding, 5-HT2B
Serotonin 5-HT2B, sequence (P41595 whole entry): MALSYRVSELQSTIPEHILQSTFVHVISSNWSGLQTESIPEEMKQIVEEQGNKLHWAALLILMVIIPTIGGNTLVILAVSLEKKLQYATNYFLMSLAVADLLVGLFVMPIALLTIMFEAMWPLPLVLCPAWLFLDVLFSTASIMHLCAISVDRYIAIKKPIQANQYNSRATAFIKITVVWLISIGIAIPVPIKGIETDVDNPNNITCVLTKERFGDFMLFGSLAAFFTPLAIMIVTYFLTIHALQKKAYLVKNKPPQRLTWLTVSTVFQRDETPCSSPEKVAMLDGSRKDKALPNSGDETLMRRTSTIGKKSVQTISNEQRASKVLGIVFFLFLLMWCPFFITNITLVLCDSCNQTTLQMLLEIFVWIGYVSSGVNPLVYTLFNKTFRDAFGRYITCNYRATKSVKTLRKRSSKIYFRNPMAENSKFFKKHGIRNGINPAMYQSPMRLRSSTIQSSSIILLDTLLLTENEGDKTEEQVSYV

[13] = system: rats; assay: Forced swim test (depression model); format: in vivo; conditions: 10 mg/kg i.p., 1 hour before test, versus imipramine 10 mg/kg, FIG. 5
[14] = target: α-Adrenergic α1D (Homo sapiens, UniProt P25100); assay: Receptor binding, α1D
[15] = target: Serotonin 5-HT3 (Homo sapiens, UniProt P46098); assay: Receptor binding, 5-HT3
Serotonin 5-HT3, sequence (P46098 24-478): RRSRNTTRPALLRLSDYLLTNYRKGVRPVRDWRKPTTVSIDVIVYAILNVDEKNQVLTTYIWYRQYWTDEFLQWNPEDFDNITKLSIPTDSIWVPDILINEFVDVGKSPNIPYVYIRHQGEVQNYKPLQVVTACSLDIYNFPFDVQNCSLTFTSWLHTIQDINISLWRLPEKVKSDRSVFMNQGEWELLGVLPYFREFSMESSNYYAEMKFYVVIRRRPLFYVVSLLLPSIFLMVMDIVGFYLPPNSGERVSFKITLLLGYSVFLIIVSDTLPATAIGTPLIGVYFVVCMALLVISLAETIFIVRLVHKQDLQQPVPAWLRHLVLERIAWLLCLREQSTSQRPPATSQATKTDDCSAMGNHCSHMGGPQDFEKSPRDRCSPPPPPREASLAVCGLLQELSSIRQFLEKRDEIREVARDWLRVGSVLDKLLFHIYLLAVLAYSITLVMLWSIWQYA

[16] = target: Dopamine D3 (Homo sapiens, UniProt P35462); assay: Receptor binding, D3
[17] = target: Sigma σ2 (Homo sapiens, UniProt Q5BJF2); assay: Receptor binding, σ2
Sigma σ2, sequence (Q5BJF2 whole entry): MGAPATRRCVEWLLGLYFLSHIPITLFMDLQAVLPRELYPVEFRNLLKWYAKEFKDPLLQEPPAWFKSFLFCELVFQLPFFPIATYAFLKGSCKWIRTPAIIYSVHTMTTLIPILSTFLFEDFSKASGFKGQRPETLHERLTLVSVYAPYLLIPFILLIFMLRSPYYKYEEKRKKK

[18] = target: Serotonin 5-HT7 (Homo sapiens, UniProt P34969); assay: Receptor binding, 5-HT7
Serotonin 5-HT7, sequence (P34969 whole entry): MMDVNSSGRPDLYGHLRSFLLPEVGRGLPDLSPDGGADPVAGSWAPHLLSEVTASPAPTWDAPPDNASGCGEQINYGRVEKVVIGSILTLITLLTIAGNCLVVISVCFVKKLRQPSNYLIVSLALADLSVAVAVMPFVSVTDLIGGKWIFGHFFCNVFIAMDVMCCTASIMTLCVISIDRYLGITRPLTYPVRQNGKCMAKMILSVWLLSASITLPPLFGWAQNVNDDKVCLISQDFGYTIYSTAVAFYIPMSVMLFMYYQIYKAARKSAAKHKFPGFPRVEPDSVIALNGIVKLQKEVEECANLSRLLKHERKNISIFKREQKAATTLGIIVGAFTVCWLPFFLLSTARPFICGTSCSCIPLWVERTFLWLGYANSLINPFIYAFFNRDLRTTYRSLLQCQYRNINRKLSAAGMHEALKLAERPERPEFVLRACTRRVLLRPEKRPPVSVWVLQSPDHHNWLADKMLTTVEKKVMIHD

[19] = target: Histamine H1 (Homo sapiens, UniProt P35367); assay: Receptor binding, H1; conditions: H1
[20] = target: T3, α-Adrenergic α2B (Homo sapiens, UniProt P18089); assay: Receptor binding, α2B
T3 sequence (P18089 1-450): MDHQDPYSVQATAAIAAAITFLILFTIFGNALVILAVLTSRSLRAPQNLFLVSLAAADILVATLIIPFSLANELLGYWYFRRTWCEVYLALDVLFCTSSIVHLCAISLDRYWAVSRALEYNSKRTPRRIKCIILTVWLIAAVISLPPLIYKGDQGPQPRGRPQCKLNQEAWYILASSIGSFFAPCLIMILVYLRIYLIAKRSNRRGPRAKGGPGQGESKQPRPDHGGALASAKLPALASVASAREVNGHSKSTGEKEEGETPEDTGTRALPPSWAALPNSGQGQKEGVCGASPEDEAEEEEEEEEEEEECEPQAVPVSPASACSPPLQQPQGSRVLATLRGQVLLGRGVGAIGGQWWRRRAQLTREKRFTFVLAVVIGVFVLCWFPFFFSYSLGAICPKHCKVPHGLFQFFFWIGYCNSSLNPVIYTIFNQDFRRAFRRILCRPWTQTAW

Muscarinic M2, sequence (P08172 whole entry): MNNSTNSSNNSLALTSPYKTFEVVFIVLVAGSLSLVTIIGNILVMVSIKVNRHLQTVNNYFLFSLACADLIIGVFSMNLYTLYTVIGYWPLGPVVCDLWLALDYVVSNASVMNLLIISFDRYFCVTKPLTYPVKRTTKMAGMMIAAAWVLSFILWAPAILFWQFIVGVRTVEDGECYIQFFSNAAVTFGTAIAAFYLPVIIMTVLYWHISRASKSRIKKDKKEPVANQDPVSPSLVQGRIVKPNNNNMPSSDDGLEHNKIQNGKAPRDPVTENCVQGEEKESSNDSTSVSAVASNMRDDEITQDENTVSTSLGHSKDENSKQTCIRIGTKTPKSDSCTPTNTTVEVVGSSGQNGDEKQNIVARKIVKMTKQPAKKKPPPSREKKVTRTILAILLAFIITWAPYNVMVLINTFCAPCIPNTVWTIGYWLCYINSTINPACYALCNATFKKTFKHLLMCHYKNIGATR
Serotonin 5-HT1E, sequence (P28566 whole entry): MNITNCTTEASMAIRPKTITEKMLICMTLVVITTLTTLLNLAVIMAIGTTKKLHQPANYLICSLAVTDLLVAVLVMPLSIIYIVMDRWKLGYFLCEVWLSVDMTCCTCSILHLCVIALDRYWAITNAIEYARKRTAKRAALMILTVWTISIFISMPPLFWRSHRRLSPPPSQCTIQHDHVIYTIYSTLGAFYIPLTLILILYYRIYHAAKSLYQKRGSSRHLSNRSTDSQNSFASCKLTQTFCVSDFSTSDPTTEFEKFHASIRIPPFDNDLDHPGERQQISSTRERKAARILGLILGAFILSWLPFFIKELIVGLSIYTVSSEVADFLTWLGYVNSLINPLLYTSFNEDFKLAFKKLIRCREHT
Dopamine D1, sequence (P21728 whole entry): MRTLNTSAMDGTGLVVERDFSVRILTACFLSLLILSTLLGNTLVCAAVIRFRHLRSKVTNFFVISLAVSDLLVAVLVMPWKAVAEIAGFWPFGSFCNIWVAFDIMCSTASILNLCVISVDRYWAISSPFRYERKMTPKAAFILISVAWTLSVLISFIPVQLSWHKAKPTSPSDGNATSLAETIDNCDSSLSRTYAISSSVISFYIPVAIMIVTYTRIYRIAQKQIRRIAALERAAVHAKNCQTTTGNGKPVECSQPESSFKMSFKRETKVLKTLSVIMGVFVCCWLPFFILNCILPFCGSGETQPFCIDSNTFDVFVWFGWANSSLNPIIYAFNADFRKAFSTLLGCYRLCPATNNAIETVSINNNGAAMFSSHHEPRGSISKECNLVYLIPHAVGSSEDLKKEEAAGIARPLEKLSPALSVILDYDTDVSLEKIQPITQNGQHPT

- Ki [1]: > 10 µM
- Ki [2]: > 10 µM
- Ki [3]: > 10 µM
- Ki [4]: 1.95 µM
- Ki [5]: 1.46 µM
- Ki ([6]; 5-HT6): 0.189 µM
- binding, in words ([6]; 5-HT6, text summary of Table 1): moderate binding
- Ki [7]: > 10 µM
- Ki [8]: > 10 µM
- Ki [9]: 0.507 µM
- Ki [10]: > 10 µM
- Ki [11]: > 10 µM
- Ki [12]: 0.195 µM
- Ki [14]: 5.03 µM
- Ki [15]: > 10 µM
- Ki [16]: > 10 µM
- Ki ([17]; σ2): 1.81 µM
- binding, in words ([17]; σ2, text summary of Table 1): moderate binding
- Ki ([18]; 5-HT7): 0.258 µM
- binding, in words ([18]; 5-HT7, text summary of Table 1): moderate binding
- Ki [19]: 0.733 µM
- Ki [20]: > 10 µM
SMILES: CN1CCc2c(c3cccc4c3n2Cc2ccccc2O4)C1 [Compound 13b]
- antidepressive activity (immobility, forced swim test) [13]: comparable to imipramine

— patent publication US9598414B2, “Substituted benzo[5,6]azepino[3,2,1-hi]pyrido[4,3-b]indoles and substituted benzo[6,7][1,4]oxazepino[2,3,4-hi]pyrido[4,3-b]indoles for treating CNS disorders” (Daya Drug Discoveries, Inc., priority 2013, dated 2017)
